We go through 3 molecules from article PMC11701329, “Inhibition of the polyol pathway by Ducrosia anethifolia extract: plausible implications for diabetic retinopathy treatment” (Frontiers in Pharmacology, 2024).

Converted amounts (≈) assume the structure as drawn.

Usually Km stands for the concentration of substrate that gives half-maximal velocity. As a reminder, the Vmax is the top rate of the reaction or transport when substrate is in excess. What is called IC50 is the concentration that gives 50% inhibition. Low values mean greater potency in that assay, high ones weaker potency in that assay.

Data set [1] has as its system T1, SD (sorbitol dehydrogenase).
T1 construct: gene SORD; purchased from Sigma-Aldrich; human recombinant cannot be excluded
The experiment in a line: absorbance change at […] nm, Lineweaver-Burk. In kind it is biochemical. The settings on record: no extract; 0.5 mM NAD+, sorbitol 50-250 mM, 100 mM Tris-HCl pH 9.0.

A further data set deals with O=CC(O)CO. The experiment in a line: purified protein. The settings on record: no extract, 0.15 mM NADPH, DL-glyceraldehyde 5-25 mM, 100 mM sodium phosphate pH 6.2.
The target of data set [2] is T1, SD (sorbitol dehydrogenase). The experiment in a line: absorbance change at […] nm (NAD+ reduction). In kind it is biochemical. The note with it: 0.5 mM NAD+, 100 mM sorbitol, 100 mM Tris-HCl pH 9.0.

Take `OC[C@@H](O)[C@@H](O)[C@H](O)[C@@H](O)CO` [sorbitol]: the Km in data set [1] stood at 44.7 mM.
With “human recombinant AR (aldose reductase) (Homo sapiens)”, in the data set with O=CC(O)CO, the Michaelis constant (Km) came to 5.51 mM and the Vmax came to 0.069 µM/min.
As to `O=c1c(O)c(-c2ccc(O)c(O)c2)oc2cc(O)cc(O)c12` [quercetin], in data set [2], the “IC50” value was determined as 8.14 ± 2.27 µg/mL (≈ 26.9 µM).
